Laboratory results: PMC12348844, “Anti-Trypanosoma cruzi Potential of New Pyrazole-Imidazoline Derivatives” (Molecules, 2025)
Read-outs that look alike come from different tables or passages of the source.

Legend:
[1] = Cytotoxicity assay, Vero cells (CellTiter-Glo); type: cell-based; details: African green monkey, mean ± SD
Procedure: Vero cells, obtained from the Rio de Janeiro Cell Bank (BCRT code 0245) and maintained through weekly subculturing with a dissociation solution containing 0.25% trypsin-EDTA, initiated once the monolayer reached an 80–100% confluence. Following harvesting, the cells were washed and resuspended in RPMI 1640 medium enriched with 10% fetal bovine serum (FBS). Cultures were maintained at 37 °C in a 5% CO2-humidified incubator. These cultures were used for drug screening assays and for producing culture-derived trypomastigotes of T. cruzi.
Cytotoxicity assays were performed using Vero cells, which were seeded at a density of 1.5 × 10^4 cells per well in white 96-well plates with clear bottoms. Following a 24 h adhesion period, the cultures were incubated at 37 °C in a 5% CO2 atmosphere. […] After 72 h of incubation, cell viability was assessed by adding CellTiter-Glo reagent (Promega Corporation, Madison, WI, USA), which induces cell lysis and reacts with the released ATP to produce luminescence. The resulting luminescence was measured using a Glomax Multi-Detection plate reader (Promega Corporation, Madison, WI, USA). The half-maximal inhibitory concentration (CC50) for cell viability was then calculated using GraphPad Prism software version 8.2.1.

T. cruzi (Dm28c-Luc) = experiment: Reversibility (washout) assay in T. cruzi-infected Vero cells; type: cell-based, Trypanosoma cruzi
Procedure: After treatment, the cultures were thoroughly washed, and parasite recrudescence was evaluated over an extended period of 10 days in RPMI medium supplemented with 10% fetal bovine serum (FBS). Culture supernatants were collected at intervals, and the luminescence signal indicative of trypomastigote release was assessed using a Glomax Multi-Detection plate reader (Promega Corporation, Madison, WI, USA) following the addition of luciferin every 2–3 days. At the experiment’s conclusion, the infection profile of the monolayer was also examined. Cells were fixed with PFA for 20 min at 4 °C, then stained with DAPI for microscopy analysis. Luminescence data were expressed in arbitrary luminescent units (A.L.U), and fluorescence images were acquired using the ImageXpress Micro XLS high-content screening (HCS) system (Molecular Devices, Sunnyvale, CA, USA).

[2] = tested on: T. cruzi Dm28c-Luc intracellular amastigotes; experiment: Anti-T. cruzi in vitro assay, intracellular amastigotes in Vero cells (luminescence); type: cell-based, Trypanosoma cruzi; details: Trypanosoma cruzi
Procedure: (§1) The genetically modified Trypanosoma cruzi, clone Dm28c (TcI), expressing luciferase (Dm28c-Luc), was kindly provided by Dr. Cristina Henriques from Oswaldo Cruz Institute—Fiocruz. The parasites were maintained using Vero cell cultures in RPMI 1640 medium enriched with 10% FBS. At 4 days post-infection (dpi), the trypomastigotes released into the culture supernatant were harvested, subjected to centrifugation at 800× g for 20 min at 4 °C, and quantified with a Neubauer chamber. The isolated trypomastigotes were subsequently used for phenotypic screening, drug efficacy assessments employing a 3D cardiac model, washout experiments to evaluate reversibility, drug combination studies, and enzymatic assays.
To evaluate the effect of pyrazole-imidazoline derivatives against intracellular amastigotes, Vero cells (1.5 × 10^4 cells/well) were cultured in a white 96-well plate with a clear bottom and subsequently infected with T. cruzi Dm28c-Luc at a 10:1 parasite-to-host cell ratio for 24 h. […] Parasite viability was measured by luminescence following the addition of luciferin (300 µg/mL). Background measurements (non-infected cultures incubated with luciferin, as well as luciferin-only controls) were performed to ensure the signal specifically originates from viable parasites. The IC50 and IC90 values, denoting the concentrations that achieve 50% and 90% reductions in viable parasites, respectively, were calculated using GraphPad Prism 8.2.1 software. Additionally, the selectivity index (SI) was calculated as the cytotoxic concentration (CC50) ratio in mammalian cells to the IC50 against T. cruzi, providing insight into the therapeutic window. Potency against intracellular amastigotes was evaluated using the formula 6—Log10 (IC50).

[3] = tested on: T. cruzi Dm28c-Luc trypomastigotes; experiment: Anti-T. cruzi in vitro assay, trypomastigotes (luminescence); type: cell-based; details: Trypanosoma cruzi, 24 h, mean ± SD
Procedure: as §1
Drug susceptibility assays were performed on T. cruzi Dm28c-Luc, a genetically engineered parasite expressing luciferase. The drug screening used both trypomastigotes and intracellular amastigotes. Trypomastigotes (1 × 10^6 parasites/well) were added to white 96-well plates with clear bottoms. […] The luminescence was measured using a Glomax Multi-Detection plate reader (Promega Corporation, Madison, WI, USA).

[4] = tested on: intracellular amastigotes of T. cruzi; experiment: Drug combination with Bz, fixed-ratio isobologram, intracellular amastigotes; type: cell-based; details: Trypanosoma cruzi; proportion 1k:Bz 0:5, 72 h; read-out: IC50 (Mean ± DP) in combination assay
Procedure: The isobologram approach assessed the interaction between Bz and the promising candidate in intracellular amastigotes of T. cruzi. Vero cell cultures infected with T. cruzi (Dm28c-Luc) were treated for 72 h with various concentrations of combinations of Bz and the promising candidate, specifically at ratios of 5:0; 4:1; 3:2; 2:3; 1:4 and 0:5. The maximum concentration of each compound was established based on their IC50 values, ensuring both reached the fourth dilution in the serial dilution setup (1:3), culminating in a total of seven dilutions. After 72 h of treatment, parasite viability was measured by luminescence in a Glomax Multi-Detection plate reader (Promega Corporation, Madison, WI, USA) after incubation with luciferin. The IC50 values of each treatment combination were calculated individually, and the fractional inhibitory concentration index (FICI) was derived using the formula FICI = IC50 of the combination/IC50 of the compound alone. The overall FICI (ΣFICI) was calculated by summing the FICIs for both compounds in each combination group, while the average ΣFICI (xΣFICI) represented the overall mean across all combination groups. The xΣFICI values were then employed to classify the interaction as synergistic (xΣFICI ≤ 0.5), additive (0.5 < xΣFICI < 4), or antagonistic (xΣFICI > 4). […]

## O=C(Cn1ccnc1[N+](=O)[O-])NCc1ccccc1 [Bz, Benznidazole, reference compound]
[1]
  CC50 at 72 h: > 500 µM
T. cruzi (Dm28c-Luc); 100 µM, 10 days treatment + 10 days washout
  reduction of parasite load of cell monolayer at 21 dpi: 98.4%
T. cruzi (Dm28c-Luc); 100 µM, untreated 5 × 10^5 A.L.U
  parasite load of cell monolayer at 21 dpi (luminescence): 8 × 10^3 A.L.U
T. cruzi (Dm28c-Luc); 10 days treatment, tested conditions
  sterility of cultures in reversibility assay: failed to achieve sterility
[2]; Vero, intracellular amastigotes, 6 − Log10(IC50), read-out: pIC50 (potency) (converted)
  IC50: 2.51 µM
[2]; 72 h, Dm28c-Luc in Vero cells, mean ± SD
  IC90: 10.4 ± 0.5 µM
[2]; 72 h, Dm28c-Luc in Vero cells, mean ± SD, read-out: Intracellular Amastigotes IC50
  IC50: 2.2 ± 0.4 µM
[3]
  IC50: 20.5 ± 1.8 µM
  IC90: > 100 µM
[4]
  IC50: 2.3 ± 0.07 µM
